# Structures can show the parent of a compound that is named as a salt.
# Legend:
# [1] = test system: N-acetyl-β-D-glucosaminidase (NAGase); test: substrate test with N-acetyl-β-D-glucosaminidase; assay type: biochemical
# Experimental: METHOD. The MIXTURE A is dissolved in 10 ml of distilled water to give SOLUTION A. The solution should be allowed to stand in a thermostatically controlled bath at 37° C., and then 0.75 ml of the solution is added to a series of suitable tubes of 2 ml capacity. To these tubes is added, with vigorous stirring, […] aliquots of the urines under examination, and a blank is prepared by adding 0.05 ml of distilled water rather than urine to one of the tubes. The tubes are then incubate for a set length of time (preferably 30 min), after which 0.25 ml of the STOPPING BUFFER is added to each tube and the absorption (A) at 505 nm is determined for each sample, and adjusted for the value of the blank.
# The enzyme activity of the enzyme in each sample is given by the expression using and εmax =42,000. [formula] where t=time of incubation in hours
# [2] = solubility in water or aqueous buffer
# [3] = test system: alkaline phosphatase; test: substrate test with alkaline phosphatase; assay type: biochemical
# [4] = target: E. Coli β-galactosidase (Escherichia coli, UniProt P00722); test: substrate test with β-galactosidase; assay type: biochemical
# Chain of E. Coli β-galactosidase (P00722 2-1024): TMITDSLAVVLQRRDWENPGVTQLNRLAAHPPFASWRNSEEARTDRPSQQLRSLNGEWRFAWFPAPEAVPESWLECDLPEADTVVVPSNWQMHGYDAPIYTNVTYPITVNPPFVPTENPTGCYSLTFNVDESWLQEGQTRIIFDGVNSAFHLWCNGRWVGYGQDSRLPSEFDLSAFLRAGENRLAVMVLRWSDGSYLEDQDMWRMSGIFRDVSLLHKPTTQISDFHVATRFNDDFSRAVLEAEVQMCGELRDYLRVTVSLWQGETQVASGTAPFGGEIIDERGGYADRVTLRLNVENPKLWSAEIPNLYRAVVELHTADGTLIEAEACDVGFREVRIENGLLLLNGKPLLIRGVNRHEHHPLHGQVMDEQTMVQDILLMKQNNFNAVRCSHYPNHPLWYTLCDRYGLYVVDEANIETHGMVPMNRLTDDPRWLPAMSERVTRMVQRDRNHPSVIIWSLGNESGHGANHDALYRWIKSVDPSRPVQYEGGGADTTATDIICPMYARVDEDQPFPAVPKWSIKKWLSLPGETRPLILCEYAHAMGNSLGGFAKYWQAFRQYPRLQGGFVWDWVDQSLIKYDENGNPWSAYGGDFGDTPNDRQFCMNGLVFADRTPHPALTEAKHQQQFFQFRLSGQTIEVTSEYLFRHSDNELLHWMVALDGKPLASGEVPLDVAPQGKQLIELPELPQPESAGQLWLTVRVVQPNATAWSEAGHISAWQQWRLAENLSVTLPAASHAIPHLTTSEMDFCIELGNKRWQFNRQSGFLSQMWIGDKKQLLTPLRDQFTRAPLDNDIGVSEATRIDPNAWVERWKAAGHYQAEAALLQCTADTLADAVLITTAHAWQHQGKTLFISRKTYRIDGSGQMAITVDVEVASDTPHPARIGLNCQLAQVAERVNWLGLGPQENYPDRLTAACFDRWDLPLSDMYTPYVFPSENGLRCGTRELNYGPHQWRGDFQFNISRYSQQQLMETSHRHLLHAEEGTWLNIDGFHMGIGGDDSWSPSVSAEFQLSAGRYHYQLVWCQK
# [5] = test system: carboxyesterase; test: substrate test with carboxyesterase; assay type: biochemical
# Experimental: The serum samples were diluted by a factor of 10 prior to the assay. The substrate solution and the diluted sera were then preincubated at 37° C. in a water bath. Aliquots (0.75 ml) of the substrate solution were then pipetted into small plastic tubes (2 ml capacity), and 0.05 ml samples of the sera were added to each of the substrate aliquots and shaken vigorously to ensure adequate mixing. A blank was run by substituting water (0.05 ml) for the serum. The reaction was stopped after 10 min by the addition of the stopping buffer (0.25 ml) [prepared by dissolving DABCO (22.4 g) in water (200 ml) and adjusting the pH to 10 by the addition of a little conc. hydrochloric acid. The resulting mixture was then made up to 1000 ml with acetone]. […] [formula] where t=time of incubation in hours
# Otherwise it was carried out in exactly the same ways as above
# [6] = stability on storage; assay type: physicochemical
# [7] = E. coli β-galactosidase, unit inferred
compound,measurement,setting,value
"COc1cc(/C=C/c2ccc3ccccc3[n+]2C)ccc1O[C@@H]1O[C@H](CO)[C@@H](O)[C@H](O)[C@H]1NC(C)=O [21b, 2-{2-[4-(2-Acetamido-2-deoxy-β-D-glucopyranosyloxy)-3-methoxyphenyl]-vinyl}-1-methylquinolinium iodide]",quality as substrate for NAGase,[1],substrate
"COc1cc(N2C(=O)C(=Cc3cc(OC)c(OP(=O)(O)O)c(OC)c3)SC2=S)cc(OC)c1OC [15f, 2-Thioxo-3-(3,4,5-trimethoxyphenyl)-5-(3,5-dimethoxy-4-phosphoroyloxyphenylmethylene)-thiazolidin-4-one]",solubility in alkaline buffers,[2]; alkaline buffers (pH 8 etc.),moderately soluble
same,quality as substrate for / hydrolysis by alkaline phosphatase,[3],hydrolysed by alkaline phosphatase
CCN1C(=O)C(=Cc2ccc(OP(=O)(O)O)c(OC)c2)C(=O)N(CC)C1=S [27f],solubility in water,[2]; water,good solubility
same,quality as substrate for / hydrolysis by alkaline phosphatase,[3],cleaved by alkaline phosphatase
"COc1cc(/C=C/c2ccc3ccccc3[n+]2C)ccc1O[C@@H]1O[C@H](CO)[C@H](O)[C@H](O)[C@H]1O [21c, 2-{2-[4-(β-D-Galactopyranosyloxy)-3-methoxyphenyl]-vinyl}-1-methylquinolinium iodide]",solubility in water,[2]; water,very good water solubility
same,quality as substrate for E. Coli β-galactosidase,[4],excellent substrate
same,Km,[4]; [7],~200 µM
same,% of vmax achieved,[4]; at a concentration of 0.5 mM,90%
"COc1cc(C=C2SC(=S)N(C)C2=O)cc(OC)c1OP(=O)(O)O [16f, 5-(4-Phosphoroyloxy-3,5-dimethoxyphenylmethylene)-2-thioxo-3-methylthiazolidine-4-one]",Km,[3]; phosphatase,330 µM
"COc1cc(/C=C/c2ccc3ccccc3[n+]2C)cc(OC)c1OP(=O)(O)O [22f, 2-[2-(4-phosphoroyloxy-3,5-dimethoxyphenyl)-vinyl]-1-methylquinolinium iodide]",solubility in water,[2]; water,very soluble in water
same,quality as substrate for / hydrolysis by alkaline phosphatase,[3],good substrate
same,% of vmax achieved,[3]; at a concentration of 0.5 mM,42%
same,Km,[3]; phosphatase,680 µM
2-[2-(4-Benzoyloxy-3-methoxyphenyl)-vinyl-1-methylquinolinium iodide [21e],quality as substrate for / cleavage by carboxyesterase,[5],readily cleaved
COc1cc(C=C2SC(=S)N(CC(=O)O)C2=O)cc(OC)c1OC(=O)c1ccccc1 [11e],quality as substrate for / cleavage by carboxyesterase,[5],excellent substrate
"COc1cc(/C=C/c2cc[n+](C)c3ccccc23)ccc1O[C@@H]1O[C@H](CO)[C@H](O)[C@H](O)[C@H]1O [23c, 4-{2-[4-(β-D-Galactopyranosyloxy)-3-methoxyphenyl]-vinyl}-1-methylquinolinium iodide]",solubility in water,[2]; water,good water solubility
same,quality as substrate for E. Coli β-galactosidase,[4],excellent substrate
same,Km,[4]; [7],62 µM
same,% of vmax achieved,[4]; at a concentration of 0.5 mM,95%
same,substrate inhibition,[4]; at concentrations higher than 0.5 mM,slight substrate inhibition
COc1cc(C=C2SC(=S)N(CC(=O)O)C2=O)cc(OC)c1O[C@@H]1O[C@H](CO)[C@@H](O)[C@H](O)[C@H]1NC(C)=O [11b],quality as substrate for NAGase,[1],fair substrate
same,solubility in water,[2]; water,soluble in water
"COc1cc(C=C2SC(=S)N(C)C2=O)ccc1OP(=O)(O)O [9F, 5-(4-Phosphoroyloxy-3-methoxyphenylmethylene)-2-thioxo-3-methylthiazolidine-4-one]",solubility in water,[2]; water,very soluble in water
same,quality as substrate for / hydrolysis by alkaline phosphatase,[3],hydrolysed readily
"COc1cc(/C=C/c2cc[n+](C)c3ccccc23)ccc1O[C@@H]1O[C@H](CO)[C@@H](O)[C@H](O)[C@H]1NC(C)=O [23b, 4-{2-[4-(2-acetamido-2-deoxy-β-D-glucopyranosyloxy)-3-methoxyphenyl]-vinyl}-1-methylquinolinium iodide]",quality as substrate for NAGase,[1],fair substrate
same,solubility in water,[2]; water,good water solubility
"CCC(=O)Oc1ccc(C=C2SC(=S)NC2=O)cc1OC [3d, n=1, 5-(4-propanoyloxy-3-methoxyphenylmethylene)-2-thioxothiazolidin-4-one]",solubility in water,[2]; water,slightly soluble in water
same,quality as substrate for / cleavage by carboxyesterase,[5],cleaved by carboxyesterase
"COc1cc(C=C2C(=O)N(c3ccc(S(=O)(=O)O)cc3)N=C2C)cc(OC)c1OC(=O)c1ccccc1 [29e, Potassium 1-(benzene-4-sulfonate)-4-(4-Benzolyloxy-3,5-dimethoxyphenylmethylene)-3-methyl-5-pyrazalone]",quality as substrate for / cleavage by carboxyesterase,[5],substrate for carboxyesterase
"COc1cc(/C=C/c2sc3ccccc3[n+]2C)ccc1O[C@@H]1O[C@H](CO)[C@H](O)[C@H](O)[C@H]1O [26c, 2-{2-[4-(β-D-Galactopyranosyloxy)-3-methoxyphenyl]-vinyl}-3-methylbenzothiazolium tosylate]",solubility in water,[2]; water,very soluble in water
same,concentration above which substrate inhibition starts to show,[4],above 0.7 mM
same,pH optimum,[4],6.5
same,quality as substrate for E. Coli β-galactosidase,[4],reacted to give an intense violet-red solution
same,% of vmax achieved,[4]; at a concentration of 1 mM,95%
same,Km,[4]; β-D-galactosidase from E. Coli,230 µM
COc1cc(C=C2SC(=S)N(CC(=O)O)C2=O)ccc1O[C@@H]1O[C@H](CO)[C@@H](O)[C@H](O)[C@H]1NC(C)=O [4b],quality as substrate for NAGase,[1],excellent substrate
same,Km,[1]; substrate for NAGase,980 µM
same,solubility,[2]; water,≤ 10000 µM
"COc1cc(C=CC=C2SC(=S)N(CC(=O)O)C2=O)ccc1OC(C)=O [compound 30, Piperidinium 5-[3-(4'-ethanoyloxy-3'-methoxyphenyl)-prop-2-enylidene]-2-thioxothiazolidin-4-one-3-ethanoate]",quality as substrate for / cleavage by carboxyesterase,[5],hydrolysed
COc1cc(/C=C/c2cc[n+](C)cc2)ccc1O[C@@H]1O[C@H](CO)[C@H](O)[C@H](O)[C@H]1O [19c],solubility in water,[2]; water,fair solubility
same,quality as substrate for E. Coli β-galactosidase,[4],substrate
"CCC(=O)Oc1c(OC)cc(C=C2SC(=S)N(c3ccc(C(=O)O)cc3)C2=O)cc1OC [13d, n=1, 3-(4-carboxyphenyl)-5-(3,5-dimethoxy-4-propanoyloxyphenylmethylene)-2-thioxothiazolidin-4-one]",quality as substrate for / cleavage by carboxyesterase,[5],reacted with carboxyesterase
"COc1cc(/C=C/c2cc[n+](C)c3ccccc23)cc(OC)c1O[C@@H]1O[C@H](CO)[C@H](O)[C@H](O)[C@H]1O [24c, 4-{2-[4-(β-D-Galactopyranosyloxy)-3,5-dimethoxyphenyl]-vinyl}-1-methylquinolinium iodide]",solubility in water,[2]; water,easily soluble in water
same,quality as substrate for E. Coli β-galactosidase,[4],good a substrate
"CCC(=O)Oc1c(OC)cc(C=C2C(=O)NC(=S)NC2=O)cc1OC [28d, n=1, 4,6-dioxo-5-(4-propanoyloxy-3,5-dimethoxyphenylmethylene)-2-thioxo-1,3-diazacyclohexane]",solubility in water,[2]; water,not particularly good
same,quality as substrate for / cleavage by carboxyesterase,[5],poor-to-moderate substrate
"CCC[n+]1ccc(/C=C/c2cc(OC)c(OP(=O)([O-])O)c(OC)c2)c2ccccc21 [25f, 4-[2-(4-Phosphoroyloxy-3,5-dimethoxyphenyl)-vinyl]-1-propylquinolinium]",solubility in water,[2]; water,water soluble
same,quality as substrate for / hydrolysis by alkaline phosphatase,[3],excellent substrate
same,Km,"[3]; alkaline phosphatase, unit inferred",176 µM
same,% of vmax achieved,[3]; at a concentration of 1 mM,86%
"COc1cc(C=C2SC(=S)N(c3ccc(S(=O)(=O)O)cc3)C2=O)cc(OC)c1OC(=O)c1ccccc1 [14e, Potassium 5-(4-benzoyloxy-3,5-dimethoxyphenylmethylene) -2-thioxothiazolidin-4-one-3-(phenyl-4-sulphonate)]",quality as substrate for / cleavage by carboxyesterase,[5],hydrolysed by carboxyesterase
"COc1cc(/C=C/c2ccc3ccccc3[n+]2C)ccc1OP(=O)(O)O [21f, 2-[2-(4-phosphoroyloxy-3-methoxyphenyl)-vinyl]-1-methylquinolinium iodide]",solubility in water,[2]; water,very soluble in water
same,quality as substrate for / hydrolysis by alkaline phosphatase,[3],reacted rapidly
same,stability in storage,[6],rather unstable in storage
"COc1cc(/C=C/c2ccc3ccccc3[n+]2C)cc(OC)c1O[C@@H]1O[C@H](CO)[C@H](O)[C@H](O)[C@H]1O [22c, 2-{2-[4-(β-D-Galactopyranosyloxy)-3,5-dimethoxyphenyl]-vinyl}-1-methylquinolinium iodide]",solubility in water,[2]; water,easily soluble in water
same,quality as substrate for E. Coli β-galactosidase,[4],good a substrate
"COc1cc(C=C2SC(=S)N(CC(=O)O)C2=O)ccc1O[C@@H]1O[C@H](CO)[C@H](O)[C@H](O)[C@H]1O [4c, Ammonium 5-[4-(β-D-galactopyranosyloxy)-3-methoxyphenyl-methylene]-2-thioxothiazolidin-4-one-3-ethanoate]",solubility in water,[2]; water,easily soluble in water
same,quality as substrate for E. Coli β-galactosidase,[4],very good substrate

# — patent US5221606A, “Reagent and kit for enzyme assay comprising a substrate consonant with given enzyme to be assayed” (King's College London, priority 1987, dated 1993)
